According to patent US7718641B2, “Pyrrolo [3,4-H] isoquinoline compounds and methods for modulating gated ion channels” (Aros Pharma ApS, priority 2005, dated 2010):

What was measured:
[1] = system: CFA-induced thermal hyperalgesia; assay: CFA model, thermal hyperalgesia (Hargreaves plantar test); assay type: in vivo, rat
Protocol: Assessment of thermal hyperalgesia: Baseline and post-treatment withdrawal latencies to a noxious thermal stimulus were measured according to Hargreaves (Hargreaves et al., 1988) using a plantar test analgesia meter (IITC, Woodland Hills, Calif., model # 336). The stimulus intensity was set at 30% of maximum output and the cut-off time was set at 30 seconds. Rats were placed on a glass plate warmed to 28° C. and allowed to habituate to the testing chambers for a minimum of 15 minutes prior to each testing session. The thermal stimulus was applied to the plantar surface of the paw, and the mean latency of three readings on each paw was used as the latency value for each time point. Thermal thresholds were defined as the latency in seconds to the first pain behavior, which includes nocifensive paw withdrawal, flinching, biting and/or licking of the stimulated paw. The mean and standard error of the mean (SEM) were determined for the injured and normal paws for each treatment group.
For comparison, results with morphine (6 mg/kg sc) and indomethacin (30 mg/kg po) are shown. […] Data are expressed as mean±SEM, (n=10). **P<0.01, vs. baseline.

[2] = system: CFA-induced inflammatory pain; assay: CFA model of chronic inflammatory pain, hindpaw weight bearing (Incapacitance Tester); assay type: in vivo, rat; settings: 24 h after CFA, 60 min after drug injection, n=7-8
Protocol: Rats (body weight 260-300 g) were given a s.c. injection of CFA (50% in saline, 100 μl, Sigma) into the plantar surface of the hindpaw under brief halothane anaesthesia. After 24 h, they were then tested for hindpaw weight bearing responses, as assessed using an Incapacitance Tester (Linton Instrumentation, UK), (Zhu et al., 2005). The instrument incorporates a dual channel scale that separately measures the weight of the animal distributed to each hindpaw. While normal rats distribute their body weight equally between the two hindpaws (50-50), the discrepancy of weight distribution between an injured and non-injured paw is a natural reflection of the discomfort level in the injured paw (nocifensive behavior). The rats were placed in the plastic chamber designed so that each hindpaw rested on a separate transducer pad. […] For each rat, three readings from each paw were taken and then averaged. Side-to-side weight bearing difference was calculated as the average of the absolute value of the difference between two hindpaws from three trials (right paw reading-left paw reading).
Hindpaw weight bearing responses were measured in male Sprague-Dawley rats for 2-3 days prior to being given a hindpaw injection of CFA. Twenty-four hours later baseline responses were measured and rats were then administered Compound A (5, 10 and 20 mg/kg, i.p.), Compound H (10, 30 and 60 mg/kg) and morphine (3, 6 and 10 mg/kg). Weight bearing responses were then measured at 30, 60 and 120 min after drug or vehicle injection (data shown at 60 min.). […] Data are expressed as mean +/−SEM. *P<0.05, **P<0.01, *** P<0.001 vs baseline; +++: P<0.001 vs vehicle. All groups n=7-8.

SMILES | efficacy on CFA-induced thermal hyperalgesia ([1]; 30 mg/kg po) | efficacy on CFA-induced thermal hyperalgesia ([1]; 6 mg/kg sc) | CFA-induced change in hindpaw weight bearing compared with vehicle [2]
COc1ccc2c(c1)c(CC(=O)O)c(C)n2C(=O)c1ccc(Cl)cc1 [indomethacin, reference compound] | fully efficacious | – | –
CN1CC[C@]23c4c5ccc(O)c4O[C@H]2[C@@H](O)C=C[C@H]3[C@H]1C5 [morphine, reference compound] | – | fully efficacious | marked dose-dependent attenuation in the CFA-induced change in weight bearing
